The text below walks through data of PubChem BioAssay (NCI).

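Values below derive from 48-hour exposures of cells grown in 96-well plates, with endpoints linearly interpolated between the two concentrations bracketing the appropriate inhibition level. TGI marks complete inhibition of growth.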

Assay in all cases: NCI tumour cell line growth inhibition, 48 h
Assay [1] concerns HCT-15 colon.
In assay [2] the test system is HOP-62 NSCLC.
Assay [3] has as its system M14 melanoma.
The test system of assay [4] is MCF7 breast.
For assay [5], the system named is MDA-MB-435.
Assay [6] concerns NCI-H226 lung.
Assay [7] has as its system NCI-H23 lung.
Assay [8] concerns RXF 393 renal.
Assay [9] concerns SR leukemia.
Assay [10] concerns T-47D breast.
For assay [11], the system named is HL-60(TB) leukemia.

For `COC(OC)[C@@H]1OC[C@@H](O)[C@@H]1n1cnc2c(N)ncnc21`, the TGI in [1], in [2], in [3], in assay [4], in assay [5] and in [6] was over 100 µM throughout. Besides, the TGI in [7], in assay [8], in assay [9] and in [10] was over 100 µM each time.

Turning to `CCCC(CCN)(CCN)[N+](=O)[O-]`, the TGI in assay [1], in assay [11], in [3], in assay [5], in [6] and in assay [7] was over 100 µM in each case. Besides, the TGI in assay [8], in assay [9] and in assay [10] was over 100 µM in each case.

For `COc1cc2nc(-c3cccs3)[nH]c(=O)c2cc1OC`, the TGI in assay [1], in [11], in assay [2], in assay [3], in assay [4] and in assay [5] was over 100 µM throughout. For the same compound, the TGI in [6] was over 100 µM; in assay [7] it was over 100 µM; in [8] it was over 100 µM; in [9] it was 58.4 µM; in [10] it was over 100 µM.

As for `CCOC(=O)Oc1ccc2c(c1)c(=O)c1c(NCCN(CC)CC)ccc3nnn2c31`, the TGI in [1] came out at 16.6 µM; in [2] it was 7.22 µM; in assay [3] it was 19.1 µM; in [4], 12 µM; in [5] it was 16.4 µM; in [6] it was 7.71 µM. The TGI in assay [7] stood at 18.1 µM; in assay [8] it was 18.8 µM; in assay [9], 12.9 µM; in assay [10], 29.2 µM.

In the case of `O=C(NNc1nc(-c2ccccc2)cs1)C(F)(F)F`, the TGI in assay [1], in assay [11], in assay [2], in [3], in assay [4] and in assay [5] was over 100 µM throughout. Further, the TGI in assay [6], in [7], in [8], in [9] and in [10] was over 100 µM throughout.

Turning to `C[Si](C)(C)C1=C([Si](C)(C)C)C(Cl)(Cl)C1=O`, the TGI in [1] is 4.05 µM; in assay [11], 1.53 µM; in assay [2], 41.4 µM; in assay [3] it was 9.24 µM; in assay [4], 23.4 µM; in assay [5], 7.22 µM. The TGI in assay [6] worked out at 8.86 µM; in [7], 18.4 µM; in assay [8], 5.33 µM; in [9] it was 5.46 µM; in [10], 6.35 µM.

As for `C[C@@H]1S[C@H](c2c(Cl)cccc2Cl)N2Cc3ccccc3N=C12`, the TGI in [1], in assay [11], in [2], in [3], in [4] and in assay [5] was over 100 µM in each case. In addition, the TGI in [7], in assay [8], in assay [9] and in assay [10] was over 100 µM each time.

As for `O=C(Nc1ccccc1)c1cc(S(=O)(=O)N2CCNNC2=O)c(S)cc1Cl`, the TGI in [1], in assay [11], in assay [3], in assay [4], in assay [5] and in assay [6] was over 100 µM each time. For the same compound, the TGI in assay [8] was 74.4 µM; in [9], over 100 µM; in assay [10] it was 83.9 µM.

On to `CC1(C)CC(=O)C2=C(C1)OC1=C(CC(C)(C)CC1=O)C2c1ccccc1[N+](=O)[O-]` (centres undefined), for which the TGI in assay [1], in assay [11], in assay [2], in [3], in assay [5] and in assay [6] was over 100 µM in each case. For the same compound, the TGI in assay [7], in assay [8], in assay [9] and in [10] was over 100 µM throughout.

On to `C=CCOCn1cc(C)c(=O)[nH]c1=O`, for which the TGI in assay [1], in [11], in assay [2], in assay [3], in [4] and in assay [5] was over 100 µM in each case. The TGI in [6], in assay [7], in assay [9] and in assay [10] was over 100 µM throughout.

As to `O=C(OCC(Cl)(Cl)Cl)O[C@@H]1CCCC1(c1ccccc1)c1ccccc1`, the TGI in assay [1], in assay [2], in assay [3], in [4], in [5] and in [6] was over 100 µM in each case. Moreover, the TGI in assay [7], in [8], in assay [9] and in assay [10] was over 100 µM each time.

With `CCN(CC)c1ccc2cc(C(=O)Nc3ccccn3)c(=N)oc2c1`, the TGI is over 100 µM in [1]; over 100 µM in assay [11]; 52.1 µM in assay [2]; over 100 µM in assay [3]; over 100 µM in assay [5]; over 100 µM in [6]. In addition, the TGI in assay [7], in [8], in [9] and in assay [10] was over 100 µM each time.

Consider `CC1C(c2ccc(Cl)cc2)c2cc3c(cc2OC1N1CCOCC1)OCO3` (centres undefined), for which the TGI in [1], in [2], in [3], in [4], in assay [5] and in assay [7] was over 100 µM in each case. Also, the TGI in assay [9] is 17.9 µM; in assay [10], over 100 µM.
